Data reported in PubChem BioAssay AID192 (DTP/NCI, 2004).
Toxic doses and inconclusive results are not listed. The calls were made as follows: active = survival T/C of 150% or more; inactive = T/C below 125% in these data.

Tested on: BDF1 mice, B16 melanoma ip, median survival T/C
Assay: NCI In Vivo Anticancer Drug Screen. Data for tumor model B16 Melanoma (intraperitoneal) in B6D2F1 (BDF1) mice
Conditions: endpoint: median survival time, higher = longer survival
In short: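 Values are ratios of treated (T) to vehicle-control (C) measurements of survival or tumor size in tumor-bearing mice.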

[1] = dose: 12.5 mg/kg/injection, schedule: Q01DX009 (ip), vehicle: saline with Tween-80
[2] = dose: 25.0 mg/kg/injection, schedule: Q01DX009 (ip), vehicle: saline
[3] = dose: 25.0 mg/kg/injection, schedule: Q01DX009 (ip), vehicle: Klucel (hydroxypropylcellulose) (HPC)
[4] = dose: 50.0 mg/kg/injection, schedule: Q01DX009 (ip), vehicle: Klucel (hydroxypropylcellulose) (HPC)
[5] = dose: 100.0 mg/kg/injection, schedule: Q01DX009 (ip), vehicle: Klucel (hydroxypropylcellulose) (HPC)
[6] = dose: 200.0 mg/kg/injection, schedule: Q01DX009 (ip), vehicle: Klucel (hydroxypropylcellulose) (HPC)
[7] = dose: 400.0 mg/kg/injection, schedule: Q01DX009 (ip), vehicle: Klucel (hydroxypropylcellulose) (HPC)
[8] = dose: 50.0 mg/kg/injection, schedule: Q01DX009 (ip), vehicle: saline with Tween-80
[9] = dose: 25.0 mg/kg/injection, schedule: Q01DX009 (ip), vehicle: saline with Tween-80
[10] = dose: 100.0 mg/kg/injection, schedule: Q01DX009 (ip), vehicle: saline with Tween-80
[11] = dose: 100.0 mg/kg/injection, schedule: Q04DX003 (ip), vehicle: Klucel (hydroxypropylcellulose) (HPC)
[12] = dose: 200.0 mg/kg/injection, schedule: Q04DX003 (ip), vehicle: Klucel (hydroxypropylcellulose) (HPC)
[13] = dose: 400.0 mg/kg/injection, schedule: Q04DX003 (ip), vehicle: Klucel (hydroxypropylcellulose) (HPC)
[14] = dose: 10.0 mg/kg/injection, schedule: Q01DX009 (ip), vehicle: saline
[15] = dose: 20.0 mg/kg/injection, schedule: Q01DX009 (ip), vehicle: saline
[16] = dose: 200.0 mg/kg/injection, schedule: Q01DX009 (ip), vehicle: saline with Tween-80

Measured: T/C

COC(=O)[CH](C[N+](=O)[O-])[Hg][Cl] (stereo unspecified)
inactive: dose: 3.2 mg/kg/injection, schedule: Q01DX009 (ip), vehicle: saline with Tween-80 95 % of control | dose: 6.25 mg/kg/injection, schedule: Q01DX009 (ip), vehicle: saline 102 % of control | dose: 6.3 mg/kg/injection, schedule: Q01DX009 (ip), vehicle: saline with Tween-80 91 % of control | [1] 89 % of control | dose: 12.5 mg/kg/injection, schedule: Q01DX009 (ip), vehicle: saline 93 % of control | dose: 12.5 mg/kg/injection, schedule: Q04DX003 (ip), vehicle: Klucel (hydroxypropylcellulose) (HPC) 94 % of control | [2] 89 % of control | dose: 25.0 mg/kg/injection, schedule: Q04DX003 (ip), vehicle: Klucel (hydroxypropylcellulose) (HPC) 92 % of control

Cc1cc(C)cc(OCC2CNC(=O)O2)c1 (stereo unspecified)
inactive: [3] 94 % of control | [4] 108 % of control | [5] 91 % of control | [6] 94 % of control | [7] 100 % of control

NC(N)=Nc1ccc(C(=O)O)cc1
inactive: dose: 33.0 mg/kg/injection, schedule: Q01DX009 (ip), vehicle: saline with Tween-80 100 % of control | [8] 96 % of control | dose: 75.0 mg/kg/injection, schedule: Q01DX009 (ip), vehicle: saline with Tween-80 96 % of control

c1cn[nH]c1
inactive: [9] 97 % of control | [8] 96 % of control | [10] 91 % of control

CCOC(=O)C1CN(S(=O)(=O)c2ccc(C)cc2)c2ccccc2C(=O)C1/C(=C/C(=O)OC)C(=O)OC (stereo unspecified)
inactive: [11] 92 % of control | [12] 90 % of control | [13] 88 % of control

COc1cccc2c1C(=O)c1c(O)c3c(c(O)c1C2=O)CC(O)(C(C)=O)CC3OC1CC([N+](C)(C)C)C(O)C(C)O1 (stereo unspecified)
inactive: dose: 1.56 mg/kg/injection, schedule: Q01DX009 (ip), vehicle: water 110 % of control | dose: 3.13 mg/kg/injection, schedule: Q01DX009 (ip), vehicle: water 107 % of control | dose: 6.25 mg/kg/injection, schedule: Q01DX009 (ip), vehicle: water 98 % of control | dose: 12.5 mg/kg/injection, schedule: Q01DX009 (ip), vehicle: water 110 % of control | dose: 25.0 mg/kg/injection, schedule: Q01DX009 (ip), vehicle: water 106 % of control

Cc1cccc(NC(=O)c2ccccc2C(=O)O)c1C
inactive: [5] 94 % of control | [6] 94 % of control | [7] 97 % of control

Nc1nc(=S)c2ncn(C3CC(O)C(CO)O3)c2[nH]1 (stereo unspecified)
inactive: dose: 1.25 mg/kg/injection, schedule: Q01DX009 (ip), vehicle: saline with Tween-80 104 % of control | dose: 1.25 mg/kg/injection, schedule: Q01DX009 (ip), vehicle: saline 102 % of control | dose: 2.5 mg/kg/injection, schedule: Q01DX009 (ip), vehicle: saline with Tween-80 117 % of control | dose: 2.5 mg/kg/injection, schedule: Q01DX009 (ip), vehicle: saline 93 % of control | dose: 5.0 mg/kg/injection, schedule: Q01DX009 (ip), vehicle: saline with Tween-80 113 % of control | dose: 5.0 mg/kg/injection, schedule: Q01DX009 (ip), vehicle: saline 104 % of control | [14] 104 % of control | dose: 12.5 mg/kg/injection, schedule: Q01DX009 (ip), vehicle: saline sonified 112 % of control | [15] 100 % of control | dose: 25.0 mg/kg/injection, schedule: Q01DX009 (ip), vehicle: saline sonified 110 % of control | dose: 50.0 mg/kg/injection, schedule: Q01DX009 (ip), vehicle: saline sonified 87 % of control

CNC(Cc1ccccc1)c1ccc(OC)c(OC)c1 (stereo unspecified)
inactive: [5] 100 % of control | [6] 100 % of control | [7] 103 % of control

COc1cc([N+](=O)[O-])ccc1NC(=O)Nc1ccc(Cl)cc1
inactive: [8] 93 % of control | [10] 91 % of control | [16] 101 % of control

O=C(CC(CC(=O)c1ccccc1)c1ccco1)c1ccccc1
inactive: [5] 93 % of control | [6] 93 % of control | [7] 93 % of control

COc1ccc(C(=O)c2ccc(C)cc2)cc1
inactive: [5] 97 % of control | [11] 88 % of control | [6] 93 % of control | [12] 95 % of control | [7] 93 % of control | [13] 102 % of control

COC(=Nc1ccccc1)SSC(C)C
inactive: dose: 6.25 mg/kg/injection, schedule: Q01DX009 (ip), vehicle: saline with Tween-80 113 % of control | [1] 108 % of control | [9] 102 % of control | [8] 100 % of control | [10] 97 % of control

Nc1ccc(OC(F)(F)C(F)Cl)cc1 (stereo unspecified)
inactive: [5] 86 % of control | [6] 96 % of control | [7] 103 % of control

O=C(Nc1ccccc1)Oc1ccc(OCc2ccccc2)cc1
inactive: [1] 96 % of control | [9] 93 % of control | [8] 92 % of control

COc1cc(Cc2nccc3cc(OC)c(OC)cc23)c(C(C)=O)c(OC)c1
inactive: [14] 101 % of control | [15] 107 % of control | dose: 40.0 mg/kg/injection, schedule: Q01DX009 (ip), vehicle: saline 107 % of control | dose: 80.0 mg/kg/injection, schedule: Q01DX009 (ip), vehicle: saline 107 % of control

O=C(CCCCl)CC(O)(C(F)(F)Cl)C(F)(F)Cl
inactive: [9] 114 % of control | dose: 25.0 mg/kg/injection, schedule: Q04DX003 (ip), vehicle: saline with Tween-80 97 % of control | [8] 114 % of control | dose: 50.0 mg/kg/injection, schedule: Q04DX003 (ip), vehicle: saline with Tween-80 102 % of control | [10] 117 % of control | dose: 100.0 mg/kg/injection, schedule: Q04DX003 (ip), vehicle: saline with Tween-80 105 % of control

C#CCOCC(O)CCl (stereo unspecified)
inactive: [2] 94 % of control | dose: 50.0 mg/kg/injection, schedule: Q01DX009 (ip), vehicle: saline 105 % of control | [10] 95 % of control | dose: 100.0 mg/kg/injection, schedule: Q01DX009 (ip), vehicle: saline 89 % of control

O=C(O)/C(=C/c1ccc(O)cc1)c1ccccc1
inactive: [10] 110 % of control | [16] 100 % of control | dose: 400.0 mg/kg/injection, schedule: Q01DX009 (ip), vehicle: saline with Tween-80 92 % of control

CCOC(=O)c1ccc(NC(=O)Nc2nccs2)cc1
inactive: dose: 6.25 mg/kg/injection, schedule: Q01DX009 (ip), vehicle: Klucel (hydroxypropylcellulose) (HPC) 102 % of control | dose: 6.25 mg/kg/injection, schedule: Q01DX009 (oral), vehicle: Klucel (hydroxypropylcellulose) (HPC) 113 % of control | dose: 12.5 mg/kg/injection, schedule: Q01DX009 (ip), vehicle: Klucel (hydroxypropylcellulose) (HPC) 99 % of control | [1] 110 % of control | dose: 12.5 mg/kg/injection, schedule: Q01DX009 (oral), vehicle: Klucel (hydroxypropylcellulose) (HPC) 108 % of control | dose: 12.5 mg/kg/injection, schedule: Q01DX009 (oral), vehicle: saline with Tween-80 107 % of control | [3] 96 % of control | dose: 25.0 mg/kg/injection, schedule: Q01DX009 (oral), vehicle: Klucel (hydroxypropylcellulose) (HPC) 110 % of control | dose: 25.0 mg/kg/injection, schedule: Q01DX009 (oral), vehicle: saline with Tween-80 109 % of control | [4] 96 % of control | dose: 50.0 mg/kg/injection, schedule: Q01DX009 (oral), vehicle: Klucel (hydroxypropylcellulose) (HPC) 119 % of control | dose: 50.0 mg/kg/injection, schedule: Q01DX009 (oral), vehicle: saline with Tween-80 106 % of control | [5] 114 % of control | dose: 100.0 mg/kg/injection, schedule: Q01DX009 (oral), vehicle: Klucel (hydroxypropylcellulose) (HPC) 102 % of control | dose: 100.0 mg/kg/injection, schedule: Q01DX009 (oral), vehicle: saline with Tween-80 119 % of control | [6] 113 % of control | dose: 200.0 mg/kg/injection, schedule: Q01DX009 (oral), vehicle: Klucel (hydroxypropylcellulose) (HPC) 99 % of control | dose: 200.0 mg/kg/injection, schedule: Q01DX009 (oral), vehicle: saline with Tween-80 112 % of control | dose: 400.0 mg/kg/injection, schedule: Q01DX009 (oral), vehicle: saline with Tween-80 110 % of control

CC(=O)NC(C=O)C(O)C(O)C(O)C(=O)O (stereo unspecified)
inactive: [3] 101 % of control | [4] 100 % of control | [5] 92 % of control
